Reference: patent US9937183B2, “Antimicrobial compounds and methods of making and using the same” (priority 2013, dated 2018)
≈ marks a conversion by molar mass, not a printed value. Where two headings read alike, the source gives them in different places.

What was measured:
Format in all cases: cell-based
E. coli 1705878 = experiment: MIC, microtiter-based liquid assay (CLSI); details: Escherichia coli, MDR strain
A. baumannii 1705943 = experiment: MIC, microtiter-based liquid assay (CLSI); details: Acinetobacter baumannii
E. coli CAG12184 TolC = experiment: MIC, microtiter-based liquid assay (CLSI); details: Escherichia coli, CAG12184TOLC
B. anthracis = experiment: microbe, parasite or virus in culture; details: Bacillus anthracis; for MIC50: read-out: B. anthracis MIC50; for MIC90: read-out: B. anthracis MIC90; for MIC: read-out: B. anthracis MIC Range
E. coli MG1655 parent = experiment: MIC, microtiter-based liquid assay (CLSI); details: Escherichia coli
K. pneumoniae 1705966 = experiment: MIC, microtiter-based liquid assay (CLSI); details: Klebsiella pneumoniae
E. coli ATCC25922 = experiment: MIC, microtiter-based liquid assay (CLSI); details: Escherichia coli
A. baumannii 1705936 = experiment: MIC, microtiter-based liquid assay (CLSI); details: Acinetobacter baumannii, MDR strain
B. mallei = experiment: microbe, parasite or virus in culture; details: Burkholderia mallei; for MIC50: read-out: B. mallei MIC50; for MIC90: read-out: B. mallei MIC90; for MIC: read-out: B. mallei MIC Range
[1] = system: S. pneumoniae 02J1175 Mef(A); experiment: MIC, microtiter-based liquid assay (CLSI); details: Streptococcus pneumoniae
P. aeruginosa 1705904 = experiment: MIC, microtiter-based liquid assay (CLSI); details: Pseudomonas aeruginosa, MDR strain
P. aeruginosa ATCC27853 = experiment: MIC, microtiter-based liquid assay (CLSI); details: Pseudomonas aeruginosa
S. aureus 11540 MRSA = experiment: MIC, microtiter-based liquid assay (CLSI); details: Staphylococcus aureus
F. tularensis = experiment: microbe, parasite or virus in culture; details: Francisella tularensis; for MIC50: read-out: F. tularensis MIC50; for MIC90: read-out: F. tularensis MIC90; for MIC: read-out: F. tularensis MIC Range
[2] = system: E. faecium A6349 VanA + LNZ-R; experiment: MIC, microtiter-based liquid assay (CLSI); details: Enterococcus faecium
B. pseudomallei = experiment: microbe, parasite or virus in culture; details: Burkholderia pseudomallei; for MIC50: read-out: B. pseudomallei MIC50; for MIC90: read-out: B. pseudomallei MIC90; for MIC: read-out: B. pseudomallei MIC Range
P. aeruginosa 1705886 = experiment: MIC, microtiter-based liquid assay (CLSI); details: Pseudomonas aeruginosa
Y. pestis = experiment: microbe, parasite or virus in culture; details: Yersinia pestis; for MIC50: read-out: Y. pestis MIC50; for MIC90: read-out: Y. pestis MIC90; for MIC: read-out: Y. pestis MIC Range
K. pneumoniae 1705949 = experiment: MIC, microtiter-based liquid assay (CLSI); details: Klebsiella pneumoniae, MDR strain
[3] = ATCC25922, read-out: MIC E. coli ATCC25922 + 50% HS
[4] = ATCC25922, read-out: MIC E. coli ATCC25922

SMILES | MIC (E. coli 1705878) | MIC (A. baumannii 1705943) | MIC (E. coli CAG12184 TolC) | MIC50 (B. anthracis) | MIC90 (B. anthracis) | MIC (B. anthracis) | MIC (E. coli MG1655 parent) | MIC (K. pneumoniae 1705966) | MIC (E. coli ATCC25922; [3]) | MIC (E. coli ATCC25922; [4]) | MIC (A. baumannii 1705936) | MIC50 (B. mallei) | MIC90 (B. mallei) | MIC (B. mallei) | MIC [1] | MIC (P. aeruginosa 1705904) | MIC (P. aeruginosa ATCC27853) | MIC (S. aureus 11540 MRSA) | MIC50 (F. tularensis) | MIC90 (F. tularensis) | other results
CCc1cc(CCC[C@H](C)N)cc(-c2cc3cn(-c4ccc(CNCCCNC(=N)N)cc4)c(=O)nc3[nH]2)c1F [Compound 2] | 1 µg/mL (≈ 1.83 µM) | 0.25 µg/mL (≈ 0.457 µM) | 0.125 µg/mL (≈ 0.229 µM) | 0.12 µg/mL (≈ 0.22 µM) | 0.12 µg/mL (≈ 0.22 µM) | 0.03 to 1 µg/mL (≈ 0.0549 to 1.83 µM) | 0.25 µg/mL (≈ 0.457 µM) | 0.25 µg/mL (≈ 0.457 µM) | 0.25 µg/mL | 0.125 µg/mL (≈ 0.229 µM) | 4 µg/mL (≈ 7.32 µM) | ≤ 0.03 µg/mL | 0.06 µg/mL (≈ 0.11 µM) | 0.03 to 0.25 µg/mL (≈ 0.0549 to 0.457 µM) | 0.125 µg/mL (≈ 0.229 µM) | 8 µg/mL (≈ 14.6 µM) | 4 µg/mL (≈ 7.32 µM) | 0.25 µg/mL (≈ 0.457 µM) | ≤ 0.03 µg/mL | ≤ 0.03 µg/mL | MIC (F. tularensis): 0.03 to 0.25 µg/mL (≈ 0.0549 to 0.457 µM); MIC [2]: 2 µg/mL; MIC50 (B. pseudomallei): 2 µg/mL (≈ 3.66 µM); MIC90 (B. pseudomallei): 4 µg/mL (≈ 7.32 µM); MIC (B. pseudomallei): 0.5 to 8 µg/mL (≈ 0.915 to 14.6 µM); MIC (P. aeruginosa 1705886): 2 µg/mL (≈ 3.66 µM); MIC50 (Y. pestis): 0.12 µg/mL (≈ 0.22 µM); MIC90 (Y. pestis): 0.25 µg/mL (≈ 0.457 µM); MIC (Y. pestis): 0.03 to 0.25 µg/mL (≈ 0.0549 to 0.457 µM); MIC (K. pneumoniae 1705949): 0.5 µg/mL (≈ 0.915 µM)
C[C@H](NCCCNC(=N)N)c1ccc(-n2cc3cc(-c4cc(CCC[C@@H](N)CO)cc(Cl)c4F)[nH]c3nc2=O)cc1 [Compound 5] | 2 µg/mL (≈ 3.43 µM) | 0.25 µg/mL (≈ 0.429 µM) | 0.06 µg/mL (≈ 0.103 µM) | 0.12 µg/mL (≈ 0.206 µM) | 0.12 µg/mL (≈ 0.206 µM) | 0.03 to 2 µg/mL (≈ 0.0514 to 3.43 µM) | 0.5 µg/mL (≈ 0.857 µM) | 0.125 µg/mL (≈ 0.214 µM) | 0.25 µg/mL | 0.125 µg/mL (≈ 0.214 µM) | 2 µg/mL (≈ 3.43 µM) | 0.06 µg/mL (≈ 0.103 µM) | 0.25 µg/mL (≈ 0.429 µM) | 0.03 to 0.5 µg/mL (≈ 0.0514 to 0.857 µM) | 0.125 µg/mL (≈ 0.214 µM) | 8 µg/mL (≈ 13.7 µM) | 4 µg/mL (≈ 6.86 µM) | 0.125 µg/mL (≈ 0.214 µM) | ≤ 0.03 µg/mL | ≤ 0.03 µg/mL | MIC (F. tularensis): 0.03 to 0.25 µg/mL (≈ 0.0514 to 0.429 µM); MIC [2]: 1 µg/mL; MIC50 (B. pseudomallei): 16 µg/mL (≈ 27.4 µM); MIC90 (B. pseudomallei): 16 µg/mL (≈ 27.4 µM); MIC (P. aeruginosa 1705886): 4 µg/mL (≈ 6.86 µM); MIC50 (Y. pestis): 0.25 µg/mL (≈ 0.429 µM); MIC90 (Y. pestis): 0.5 µg/mL (≈ 0.857 µM); MIC (Y. pestis): 0.03 to 2 µg/mL (≈ 0.0514 to 3.43 µM); MIC (K. pneumoniae 1705949): 0.5 µg/mL (≈ 0.857 µM)
C[C@H](N)CCCc1cc(OC(F)(F)F)c(F)c(-c2cc3cn(-c4ccc([C@H](C)NCCCNC(=N)N)cc4)c(=O)nc3[nH]2)c1 [Compound 3] | 0.5 µg/mL (≈ 0.811 µM) | 0.25 µg/mL (≈ 0.405 µM) | 0.25 µg/mL (≈ 0.405 µM) | 0.25 µg/mL (≈ 0.405 µM) | 0.25 µg/mL (≈ 0.405 µM) | 0.03 to 2 µg/mL (≈ 0.0486 to 3.24 µM) | 0.5 µg/mL (≈ 0.811 µM) | 0.25 µg/mL (≈ 0.405 µM) | 0.5 µg/mL | 0.25 µg/mL (≈ 0.405 µM) | 2 µg/mL (≈ 3.24 µM) | 0.06 µg/mL (≈ 0.0973 µM) | 0.12 µg/mL (≈ 0.195 µM) | 0.03 to 0.5 µg/mL (≈ 0.0486 to 0.811 µM) | 0.25 µg/mL (≈ 0.405 µM) | 8 µg/mL (≈ 13 µM) | 8 µg/mL (≈ 13 µM) | 0.25 µg/mL (≈ 0.405 µM) | ≤ 0.03 µg/mL | 0.12 µg/mL (≈ 0.195 µM) | MIC (F. tularensis): 0.03 to 1 µg/mL (≈ 0.0486 to 1.62 µM); MIC [2]: 2 µg/mL; MIC50 (B. pseudomallei): 2 µg/mL (≈ 3.24 µM); MIC90 (B. pseudomallei): 4 µg/mL (≈ 6.49 µM); MIC (B. pseudomallei): 0.5 to 8 µg/mL (≈ 0.811 to 13 µM); MIC (P. aeruginosa 1705886): 4 µg/mL (≈ 6.49 µM); MIC50 (Y. pestis): 0.25 µg/mL (≈ 0.405 µM); MIC90 (Y. pestis): 0.5 µg/mL (≈ 0.811 µM); MIC (Y. pestis): 0.03 to 1 µg/mL (≈ 0.0486 to 1.62 µM); MIC (K. pneumoniae 1705949): 1 µg/mL (≈ 1.62 µM)
C[C@H](N)CCCc1cc(-c2cc3cn(-c4ccc([C@H](C)NCCCNC(=N)N)cc4)c(=O)nc3[nH]2)c(F)c(Cl)c1F [Compound 12] | 0.25 µg/mL (≈ 0.427 µM) | 0.25 µg/mL (≈ 0.427 µM) | 0.125 µg/mL (≈ 0.214 µM) | 0.06 µg/mL (≈ 0.103 µM) | 0.12 µg/mL (≈ 0.205 µM) | 0.03 to 0.25 µg/mL (≈ 0.0513 to 0.427 µM) | 0.25 µg/mL (≈ 0.427 µM) | 0.125 µg/mL (≈ 0.214 µM) | 0.5 µg/mL | 0.125 µg/mL (≈ 0.214 µM) | 2 µg/mL (≈ 3.42 µM) | ≤ 0.03 µg/mL | 0.12 µg/mL (≈ 0.205 µM) | 0.03 to 0.25 µg/mL (≈ 0.0513 to 0.427 µM) | 0.125 µg/mL (≈ 0.214 µM) | 4 µg/mL (≈ 6.84 µM) | 4 µg/mL (≈ 6.84 µM) | 0.125 µg/mL (≈ 0.214 µM) | ≤ 0.03 µg/mL | ≤ 0.03 µg/mL | MIC (F. tularensis): 0.03 to 1 µg/mL (≈ 0.0513 to 1.71 µM); MIC [2]: 0.5 µg/mL; MIC50 (B. pseudomallei): 4 µg/mL (≈ 6.84 µM); MIC90 (B. pseudomallei): 8 µg/mL (≈ 13.7 µM); MIC (B. pseudomallei): 0.5 to 16 µg/mL (≈ 0.855 to 27.3 µM); MIC (P. aeruginosa 1705886): 2 µg/mL (≈ 3.42 µM); MIC50 (Y. pestis): 0.12 µg/mL (≈ 0.205 µM); MIC90 (Y. pestis): 0.25 µg/mL (≈ 0.427 µM); MIC (Y. pestis): 0.03 to 0.5 µg/mL (≈ 0.0513 to 0.855 µM); MIC (K. pneumoniae 1705949): 0.25 µg/mL (≈ 0.427 µM)
